The values that follow come from PMC6768041 (Chemistry Central Journal, 2018).

Series [1] is described as follows: DPPH radical scavenging assay. The note with it: mean ± SEM, n = 3. The protocol: DPPH (2,2-diphenyl-1-picryl-hydrazyl-hydrate) free radical process is an antioxidant assay based on electron-transfer that turns violet color in ethanol. The antioxidant activity was based on free radical scavenging effect towards stable DPPH• radical upon spectrophotometric reaction according to the method reported in the literature. Briefly, solutions of synthesized compounds were prepared in fifty milliliters of various concentrations (25, 50, 75, and 100) µg/mL dissolved in methanol, was added to 5 mL of a 0.004% methanol solution of DPPH. The stock solution was prepared with 0.01% DPPH• in ethanol/water (1:1). While sample solutions were prepared as 5 mL DPPH• solution was mixed with 5 mL ascorbic acid solution then shaken vigorously and kept in the dark at 37 °C. The samples were incubated at the 37 °C temperature for 30 min in the dark chamber subsequently, absorbance was measured. The marketable recognized antioxidant, ascorbic acid was utilized for contrast or as a positive control. Initially, the blank spectrum for ethanol/water was recorded subsequently the spectrophotometric titration was carried out with various concentrations of synthesized compounds. The absorbance was recorded at 517 nm with UV/Vis Epoch ELISA reader, and antioxidant activity was measured as a decrease in absorbance of DPPH•. The IC50 values of free radical DPPH, based on control reading were calculated by the following equation. %inhibition of DPPH radical=Abr-Aar/Abr×100 where Abr is the absorbance prior to reaction and Aar is the absorbance after reaction with DPPH•.
For orientation: DPPH is a stable violet radical that fades when it is reduced.

The target in series [2] is T1, hMAO-A (Homo sapiens, UniProt P21397).
T1 construct: host or cells: insect cells (BTI-TN-5B14), recombinant baculovirus
T1 sequence (P21397 1-527): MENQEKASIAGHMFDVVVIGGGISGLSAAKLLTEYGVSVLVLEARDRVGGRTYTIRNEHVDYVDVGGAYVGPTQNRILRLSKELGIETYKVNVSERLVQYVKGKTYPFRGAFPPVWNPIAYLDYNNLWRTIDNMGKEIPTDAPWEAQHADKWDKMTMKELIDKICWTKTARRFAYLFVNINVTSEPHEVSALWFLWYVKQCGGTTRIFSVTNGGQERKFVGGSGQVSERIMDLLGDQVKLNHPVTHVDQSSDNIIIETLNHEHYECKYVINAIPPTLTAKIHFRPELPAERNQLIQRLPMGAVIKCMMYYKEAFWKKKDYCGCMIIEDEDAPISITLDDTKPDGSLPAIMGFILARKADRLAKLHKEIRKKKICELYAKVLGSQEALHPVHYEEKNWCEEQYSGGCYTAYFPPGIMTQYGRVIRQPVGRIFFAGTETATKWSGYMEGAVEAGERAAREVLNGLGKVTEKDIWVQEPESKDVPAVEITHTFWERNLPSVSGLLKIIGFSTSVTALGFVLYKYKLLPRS
The series is described as follows: hMAO-A inhibition, Amplex Red fluorometric assay.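 As to all read-outs here: recombinant human MAO-A and MAO-B from baculovirus-infected insect cell microsomes, H2O2 formation detected fluorometrically via Amplex Red with horseradish peroxidase, background from enzyme-free wells subtracted, distilled water negative control.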 The note with it: for Selectivity index: IC50 (MAO-A)/IC50 (MAO-B); for IC50: recombinant hMAO-A, p-tyramine substrate, mean SEM. The format is biochemical.
Excerpt: (§1) The biological hMAO activity evaluation of the test drugs was examined by quantifying their action on the generation of H2O2 by p-tyramine (general substrate for hMAO-B and hMAO-A), utilizing the Amplex Red MAO assay kit (Sigma USA) and MAO isoforms (microsomal) obtained from insect cells (BTI-TN-5B14) expressed as recombinant baculovirus consisting cDNA probes for hMAO-A or hMAO-B. Reactions were monitored by thin layer chromatography TLC executed over silica gel precoated plates (0.25 mm) purchased from Merck, envisioned of single spots was carried in iodine and UV chambers, in mobile media TLC- Benzene:Chloroform (7:3).
(§2) All synthesized compounds were evaluated for their capability to inhibit the MAO-A and MAO-B isoforms of human MAO by a fluorometric method. The MAO inhibitory property of the test compounds was examined with the recombinant human enzymes using an Amplex Red Monoamine Oxidase Assay Kit (Sigma USA). The incessant peroxidase-linked photometric assay was performed on the fluorometer. […] Distilled water was used as a negative control. In brief, 0.1 mL of sodium phosphate buffer (0.05 M, pH 7.4) with the test new compounds/reference inhibitors in different concentrations and sufficient quantity of recombinant hMAO-A or hMAO-B requisite and in step to complete our investigational protocol with the equal reaction velocity, (hMAO-A: 1.1 mg protein; explicit activity: 150 nmol of p-tyramine oxidized to p-hydroxyphenylacetaldehyde/min/mg protein; hMAO-B: 7.5 mg protein; explicit activity: 22 nmol of p-tyramine changed/min/mg protein) were incubated for 15 min at 37 °C, placed in the dark fluorometric compartment. After incubation, the effect was attained through the addition of 200 mM Amplex Red reagent (final concentrations), 1 mM p-tyramine, and 1 U/mL horseradish peroxidase. Finally, the generation of hydrogen peroxide and, subsequently, of resorufin was measured at 37 °C in fluorescence reader (λemission, 585 nm, λexcitation, 530 nm) after 15 min, by the time fluorescence amplified linearly. All the control experiments were performed concurrently by changing the reference inhibitors and test compounds with suitable dilutions in the solvents. Moreover, the activity of abovementioned evaluated compounds to alter the fluorescence produced in the combination reaction by (e.g. for reacting with Amplex Red reagent directly) non-enzymatic inhibition was identified by addition of these compounds to solutions having just the Amplex Red reagent in a sodium phosphate buffer. […] The fluorescence reading was computed by subtraction of the background activity and was evaluated from wells with all components not including the hMAO isoforms that was substituted by a sodium phosphate buffer solution. All data was processed in Microsoft Excel, to calculate IC50 values.

Series [3] is described as follows: Hydrogen peroxide scavenging (H2O2) assay. The note with it: mean ± SEM, n = 3; read-out: H2O2 radical scavenging IC50. The protocol: Amongst the reactive oxygen species (ROS), H2O2 is an essential radical as even though it is not lethal of its own accord, but can be changed to further even highly toxic radicals, for instance, OH^• by hypochlorous acid or Fenton reaction by the oxidases enzymes. A solution of H2O2 (40 µM) was added in phosphate buffer saline ([…] pH 7.4). Different quantities of test and references compounds in DMSO were added to 2 mL of hydrogen peroxide solution in buffer solution. Subsequently, upon to 10 min, the absorbance was calculated at 230 nm against a blank solution including phosphate buffer without H2O2 [31]. The percentage of scavenging H2O2 was estimated by the formula in this way: %ScavengingH2O2=AS-AT/Ai×100 where AS is the absorbance of control and AT is the absorbance of the test.

Series [4] deals with T2, hMAO-B (Homo sapiens, UniProt P27338).
T2 construct: host or cells: insect cells (BTI-TN-5B14), recombinant baculovirus
T2 sequence (P27338 1-520): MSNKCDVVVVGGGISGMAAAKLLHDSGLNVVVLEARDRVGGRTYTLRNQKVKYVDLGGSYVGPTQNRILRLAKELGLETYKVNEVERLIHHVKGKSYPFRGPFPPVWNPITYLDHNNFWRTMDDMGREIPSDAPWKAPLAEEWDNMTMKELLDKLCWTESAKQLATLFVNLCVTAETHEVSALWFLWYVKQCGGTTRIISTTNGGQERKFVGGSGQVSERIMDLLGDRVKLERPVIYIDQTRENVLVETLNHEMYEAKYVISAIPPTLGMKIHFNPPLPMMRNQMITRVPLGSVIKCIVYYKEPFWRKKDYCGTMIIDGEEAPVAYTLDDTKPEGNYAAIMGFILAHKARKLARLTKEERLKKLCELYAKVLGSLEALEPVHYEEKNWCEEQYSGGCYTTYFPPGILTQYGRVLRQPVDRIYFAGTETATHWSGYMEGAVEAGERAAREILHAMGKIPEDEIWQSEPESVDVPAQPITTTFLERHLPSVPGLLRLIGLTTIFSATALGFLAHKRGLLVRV
The series is described as follows: hMAO-B inhibition, Amplex Red fluorometric assay. The format is biochemical. The note with it: recombinant hMAO-B, p-tyramine substrate; mean SEM.
Excerpt: as §1, §2

Take `O=C(/C=C/c1ccc(O)c(O)c1)Nc1ccc([N+](=O)[O-])cc1Cl` [Compound 1, (E)-N-(2-chloro-4-nitrophenyl)-3-(3,4-dihydroxyphenyl)acrylamide]: the melting point (in general, the temperature of the solid-liquid transition) is 230 to 231 °C. Also, in series [1], the 50% inhibitory concentration (IC50) (commonly the midpoint of a concentration-inhibition curve) turned out to be 6.39 ± 0.007 µM. Also, in series [2], the Selectivity index was 0.209 and the IC50 was found to be 8.87 ± 0.005 µM. Moreover, the IC50 in series [3] worked out at 6.292 ± 0.007 µM. Further, the IC50 in series [4] is 42.34 ± 0.077 µM.

`O=C(/C=C/c1ccc(O)c(O)c1)Nc1ccc(Cl)cc1[N+](=O)[O-]` [Compound 2, (E)-N-(4-chloro-2-nitrophenyl)-3-(3,4-dihydroxyphenyl)acrylamide] gave a melting point of 200 to 202 °C. For the same compound, half-maximal inhibition in series [1] (IC50) was put at 8.09 ± 0.042 µM. In series [2], the Selectivity index was found to be 0.191 and the IC50 came out at 8.51 ± 0.017 µM. Moreover, the 50% inhibitory concentration (IC50) in series [3] is 8.544 ± 0.015 µM. For the same compound, in series [4], the IC50 is 44.42 ± 0.014 µM.

Consider `O=C(/C=C/c1ccc(O)c(O)c1)Nc1ccc(Br)cc1` [Compound 3, (E)-N-(4-bromophenyl)-3-(3,4-dihydroxyphenyl)acrylamide], for which the IC50 in series [1] was 13.56 ± 0.003 µM; in series [2], 17.72 ± 0.006 µM; in series [3], 12.56 ± 0.021 µM; in series [4], 21.14 ± 0.025 µM. Besides, the Selectivity index in series [2] stood at 0.838.

Regarding `O=C(/C=C/c1ccc(O)c(O)c1)Nc1cccc(F)c1` [Compound 4, (E)-3-(3,4-dihydroxyphenyl)-N-(3-fluorophenyl)acrylamide], the IC50 came to 9.19 ± 0.001 µM in series [1], 18.47 ± 0.007 µM in series [2], 9.486 ± 0.017 µM in series [3] and 57.88 ± 0.029 µM in series [4]. This compound returned a Selectivity index in series [2] of 0.319.

In the case of `COc1cc(C=O)ccc1OC(=O)/C=C/c1ccc(O)c(O)c1` [Compound 6, (E)-4-formyl-2-methoxyphenyl 3-(3,4-dihydroxyphenyl)acrylate], the melting point lay in the range of 150 to 151 °C. In series [1], this compound yielded an IC50 of 11.34 ± 0.001 µM. Further, in series [2], the Selectivity index came out at 1.252 and the IC50 is 20.36 ± 0.002 µM. Besides, the “MAO isoform selectivity in words” value in series [2] (hMAO-A vs hMAO-B) is “selective for hMAO-B”. For the same compound, the IC50 in series [3] amounted to 21.69 ± 0.034 µM. The IC50 in series [4] was 16.25 ± 0.035 µM.

As to `Cc1ccc(C(C)C)cc1OC(=O)/C=C/c1ccc(O)c(O)c1` [Compound 8, (E)-5-isopropyl-2-methylphenyl 3-(3,4-dihydroxyphenyl)acrylate], the melting point lay within 182 to 182.6 °C. For the same compound, in series [1], the IC50 was determined as 11.94 ± 0.025 µM. In series [2], the Selectivity index turned out to be 0.724 and the IC50 was 19.75 ± 0.066 µM. The IC50 in series [3] amounted to 11.88 ± 0.008 µM. Moreover, in series [4], the IC50 was determined as 27.26 ± 0.072 µM.

In turn, `O=C(/C=C/c1ccc(O)c(O)c1)Oc1cccc(O)c1` [Compound 9, (E)-3-hydroxyphenyl 3-(3,4-dihydroxyphenyl)acrylate] had a melting point of 198 to 198.4 °C. Moreover, in series [1], the midpoint of inhibition, the IC50, lay at 10.57 ± 0.004 µM. In series [2], the Selectivity index is listed as 0.379 and the IC50 came to 10.33 ± 0.012 µM. The 50% inhibitory concentration (IC50) in series [3] worked out at 9.907 ± 0.014 µM. In addition, in series [4], the IC50 is 27.25 ± 0.004 µM.

Turning to `CCNC(=O)/C=C/c1ccc(O)c(O)c1` [Compound 10, (E)-3-(3,4-dihydroxyphenyl)-N-ethylacrylamide], the IC50 in series [1] came out at 11.34 ± 0.078 µM; in series [2] it was 25.22 ± 0.015 µM; in series [3] it was 11.39 ± 0.042 µM; in series [4] it was 12.95 ± 0.046 µM. The Selectivity index in series [2] stood at 1.947.

In the case of `CC1CCC(C(C)C)C(OC(=O)/C=C/c2ccc(O)c(O)c2)C1` (stereo not shown) [Compound 12, (E)-2-isopropyl-5-methylcyclohexyl 3-(3,4-dihydroxyphenyl)acrylate], the half-maximal inhibitory concentration (IC50) in series [1] was 15.37 ± 0.054 µM; in series [2], 22.02 ± 0.018 µM; in series [3], 14.65 ± 0.026 µM; in series [4], 48.54 ± 0.077 µM. In series [2], this compound displayed a Selectivity index of 0.453.

As for `O=C1O[C@H]([C@@H](O)CO)C(O)=C1O` [L-Ascorbic acid, reference compound], the IC50 in series [3] is 8.12 ± 0.082 µM.
